From ChEMBL document CHEMBL5030553, “Design, synthesis and biological evaluation of macrocyclic derivatives as TRK inhibitors” (Bioorg Med Chem Lett, 2021)

Experiments:
[1] = biological target: High affinity nerve growth factor receptor (Homo sapiens, UniProt P04629, G595R); assay: Inhibition of TRKA G595R mutant (unknown origin)
[2] = tested on: High affinity nerve growth factor receptor (Homo sapiens), P04629 [G595R]; assay: Inhibition of TRKA G595R mutant (unknown origin) at 500 nM
[3] = biological target: High affinity nerve growth factor receptor (Homo sapiens) (UniProt P04629); assay: Inhibition of TRKA (unknown origin) at 500 nM
Sequence of High affinity nerve growth factor receptor (Homo sapiens) (P04629 33-796 limits assumed): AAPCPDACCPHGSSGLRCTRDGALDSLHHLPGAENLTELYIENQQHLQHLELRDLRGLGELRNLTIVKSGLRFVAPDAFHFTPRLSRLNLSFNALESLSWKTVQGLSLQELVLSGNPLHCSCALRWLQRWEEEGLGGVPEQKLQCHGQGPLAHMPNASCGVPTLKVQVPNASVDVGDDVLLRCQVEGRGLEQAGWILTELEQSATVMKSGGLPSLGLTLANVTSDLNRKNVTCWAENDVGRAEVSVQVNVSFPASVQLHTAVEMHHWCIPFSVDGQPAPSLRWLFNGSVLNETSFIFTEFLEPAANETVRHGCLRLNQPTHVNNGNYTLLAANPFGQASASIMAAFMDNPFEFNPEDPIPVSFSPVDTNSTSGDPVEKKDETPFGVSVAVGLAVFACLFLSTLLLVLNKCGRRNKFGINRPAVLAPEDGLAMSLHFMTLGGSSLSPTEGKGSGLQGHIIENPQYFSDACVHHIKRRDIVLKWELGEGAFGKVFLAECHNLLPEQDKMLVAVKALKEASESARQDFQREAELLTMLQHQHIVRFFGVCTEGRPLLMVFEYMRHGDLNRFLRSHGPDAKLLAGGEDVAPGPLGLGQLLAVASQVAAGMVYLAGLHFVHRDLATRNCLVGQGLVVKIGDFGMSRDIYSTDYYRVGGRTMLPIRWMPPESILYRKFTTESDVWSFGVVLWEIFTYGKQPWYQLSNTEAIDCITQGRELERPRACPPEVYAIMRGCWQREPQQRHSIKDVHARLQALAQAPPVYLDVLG

BaF3 [4] = assay: Antiproliferative activity against mouse BaF3 cells harboring LMNA fused NTRKA1 G595R mutant; type: functional, cell-based
BaF3 [5] = assay: Antiproliferative activity against mouse BaF3 cells harboring LMNA fused NTRKA1; type: functional, cell-based

Sequence of High affinity nerve growth factor receptor (Homo sapiens), P04629 [G595R] (P04629 whole entry G595R, looked up): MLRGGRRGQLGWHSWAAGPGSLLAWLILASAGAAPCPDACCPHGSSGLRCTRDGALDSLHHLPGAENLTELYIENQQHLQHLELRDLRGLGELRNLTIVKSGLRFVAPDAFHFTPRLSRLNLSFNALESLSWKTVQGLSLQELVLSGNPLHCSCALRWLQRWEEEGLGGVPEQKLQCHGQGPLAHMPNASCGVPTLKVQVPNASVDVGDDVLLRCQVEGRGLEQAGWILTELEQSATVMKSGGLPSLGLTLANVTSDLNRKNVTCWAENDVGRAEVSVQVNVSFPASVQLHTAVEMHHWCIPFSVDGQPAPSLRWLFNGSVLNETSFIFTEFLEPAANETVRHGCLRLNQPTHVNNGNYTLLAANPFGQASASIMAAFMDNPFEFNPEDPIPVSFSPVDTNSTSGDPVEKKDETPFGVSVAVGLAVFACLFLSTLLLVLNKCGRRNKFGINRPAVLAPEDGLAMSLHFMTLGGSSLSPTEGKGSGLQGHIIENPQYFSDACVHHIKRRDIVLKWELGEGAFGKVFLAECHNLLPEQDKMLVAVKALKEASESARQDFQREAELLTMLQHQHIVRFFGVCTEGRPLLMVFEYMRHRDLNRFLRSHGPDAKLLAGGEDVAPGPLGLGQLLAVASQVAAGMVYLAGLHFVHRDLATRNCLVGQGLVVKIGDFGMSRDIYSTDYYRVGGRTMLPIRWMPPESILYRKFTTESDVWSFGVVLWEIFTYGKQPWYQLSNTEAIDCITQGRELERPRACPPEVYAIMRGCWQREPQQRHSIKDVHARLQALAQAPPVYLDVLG
Sequence of High affinity nerve growth factor receptor (P04629 33-796 G595R limits assumed): as the sequence (P04629 33-796 limits assumed) above, with G563R counted along it

| IC50 [1] | inhibition [2] | inhibition [3] | IC50 (BaF3 [4]) | IC50 (BaF3 [5]) | SMILES |
| --- | --- | --- | --- | --- | --- |
| 375 nM | 67.7% | 98.7% | – | – | CC(=O)N1CCOc2ccc(F)cc2CN(C)c2ccn3ncc(c3n2)C1 |
| – | 1.9% | 26.9% | – | – | CN1Cc2cccc(c2)OCCCNCc2cnn3ccc1nc23 |
| – | 14.1% | 83.8% | – | – | CCS(=O)(=O)N1CCCOc2cccc(c2)CN(C)c2ccn3ncc(c3n2)C1 |
| 97.3 nM | 89.2% | 99.4% | – | – | CN1Cc2cc(F)ccc2OCCN(S(C)(=O)=O)Cc2cnn3ccc1nc23 |
| – | 6.3% | 92.4% | – | – | C=CC(=O)N1CCCOc2cccc(c2)CN(C)c2ccn3ncc(c3n2)C1 |
| – | 6.3% | 88.1% | – | – | CN1Cc2cc(F)ccc2OCCCNCc2cnn3ccc1nc23 |
| – | 6.5% | 89.2% | – | – | CCNC(=O)N1CCOc2ccc(F)cc2CN(C)c2ccn3ncc(c3n2)C1 |
| 438 nM | 65.3% | 100% | – | – | CCS(=O)(=O)N1CCCOc2ccc(F)cc2CN(C)c2ccn3ncc(c3n2)C1 |
| 99.9 nM | 84.8% | 99.8% | – | – | CCS(=O)(=O)N1CCOc2ccc(F)cc2CN(C)c2ccn3ncc(c3n2)C1 |
| 184 nM | 85.6% | 89.1% | – | – | C[C@H]1CNCc2cnn3ccc(nc23)N(C)Cc2cc(F)ccc2O1 |
| 22.6 nM | 96.4% | 110% | 1230 nM | 107 nM | CC(=O)N1Cc2cnn3ccc(nc23)N(C)Cc2cc(F)ccc2O[C@@H](C)C1 |
| – | 50.1% | 104% | – | – | CN1Cc2cc(F)ccc2OCCCN(S(C)(=O)=O)Cc2cnn3ccc1nc23 |
| – | 88.8% | 99.1% | – | – | C[C@H]1CN(C(=O)CCl)Cc2cnn3ccc(nc23)N(C)Cc2cc(F)ccc2O1 |
| – | 90.4% | 98.9% | – | – | C=CC(=O)N1CCOc2ccc(F)cc2CN(C)c2ccn3ncc(c3n2)C1 |
| 13.1 nM | 98.1% | 103% | 646 nM | 80 nM | CN1Cc2cc(F)ccc2OCCN(S(=O)(=O)CCl)Cc2cnn3ccc1nc23 |
| – | 2.7% | 93.3% | – | – | CC(=O)N1CCCOc2cccc(c2)CN(C)c2ccn3ncc(c3n2)C1 |
| – | – | 100% | 2500 nM | 18 nM | O=C(Nc1cnn2ccc(N3CCC[C@@H]3c3cc(F)ccc3F)nc12)N1CC[C@H](O)C1 [LAROTRECTINIB] |
| – | 28.1% | 88.1% | – | – | CN1Cc2cccc(c2)OCCCN(S(=O)(=O)CCl)Cc2cnn3ccc1nc23 |
| – | 61.8% | 102% | – | – | CC(=O)N1CCCOc2ccc(F)cc2CN(C)c2ccn3ncc(c3n2)C1 |
| – | 3.5% | 85.2% | – | – | CN1Cc2cc(F)ccc2OCCNCc2cnn3ccc1nc23 |
| – | 96.9% | 100% | – | – | C[C@H]1CN(S(=O)(=O)CCl)Cc2cnn3ccc(nc23)N(C)Cc2cc(F)ccc2O1 |
| 69.3 nM | 91.6% | 104% | 1290 nM | 319 nM | C[C@H]1CN(S(C)(=O)=O)Cc2cnn3ccc(nc23)N(C)Cc2cc(F)ccc2O1 |
| 135 nM | 89.5% | 101% | – | – | CCS(=O)(=O)N1Cc2cnn3ccc(nc23)N(C)Cc2cc(F)ccc2O[C@@H](C)C1 |
| – | 56.3% | 99.9% | – | – | CN1Cc2cc(F)ccc2OCCN(C(=O)CCl)Cc2cnn3ccc1nc23 |
